System: Crude diglycosidase
Assay: Examination of pH in the conversion into isoflavone aglycons by diglycosidase using soybean materials
Type: biochemical, Penicillium multicolor IAM7153
Design: Decomposition efficiency of genistin family in soymilk / Decomposition efficiency of genistin family in defatted soybean / Decomposition efficiency of daidzin family in defatted soybean: concentration or dose not given beside the values
Conditions: for Decomposition efficiency of genistin family in roasted soy flour: 55° C.
Protocol: A substrate solution of 450 μL was prepared by suspending 50 mg of each soybean material (roasted soy flour (manufactured by Fuji Shokuryo K.K.), soymilk (manufactured by Gitoh Shokuhin K.K.), defatted soybean (manufactured by Fuji Seiyu K.K.), concentrated soybean protein (manufactured by Fuji Seiyu K.K.)), and adjusting the pH to 2 to 11 with hydrochloric acid or sodium hydroxide. Each enzyme solution of pH 2–11 wherein diglycosidase activity of crude diglycosidase was adjusted to 1.88 AU/mL was added thereto in an amount of 50 μL and the whole was reacted at 55° C. at the total volume of 500 μL. To the reaction mixture was added 700 μL of ethanol after 0, 1, 3, and 6 hours of the reaction. After stirring and ultrasonication, the mixture was subjected to centrifugal separation at 15,000 rpm and 4° C. for 10 minutes. The supernatant was filtered through a filter and the existence of isoflavone glycosides and aglycon isoflavones contained in the reaction mixture was detected by HLPC (Tables 15 to 26).

[1] = pH4.8, heat treatment of enzyme: no, reaction time 0 h
[2] = pH4.8, heat treatment of enzyme: no, reaction time 1 h
[3] = pH4.8, heat treatment of enzyme: no, reaction time 3 h
[4] = pH4.8, heat treatment of enzyme: no, reaction time 6 h
[5] = pH4.8, heat treatment of enzyme: yes, reaction time 6 h

CC(=O)OC[C@H]1O[C@@H](Oc2cc(O)c3c(=O)c(-c4ccc(O)cc4)coc3c2)[C@H](O)[C@@H](O)[C@@H]1O [acetylgenistin, 6″-O-acetylgenistin]
Decomposition efficiency of genistin family in concentrated soybean protein (pH1.6, heat treatment of enzyme: no, reaction time 0 h): 42.5% | Decomposition efficiency of genistin family in concentrated soybean protein (pH1.6, heat treatment of enzyme: no, reaction time 1 h): 42.2% | Decomposition efficiency of genistin family in concentrated soybean protein (pH1.6, heat treatment of enzyme: no, reaction time 3 h): 40.6% | Decomposition efficiency of genistin family in concentrated soybean protein (pH1.6, heat treatment of enzyme: no, reaction time 6 h): 38.9% | Decomposition efficiency of genistin family in concentrated soybean protein (pH1.6, heat treatment of enzyme: yes, reaction time 6 h): 37.7% | Decomposition efficiency of genistin family in roasted soy flour (pH2, heat treatment of enzyme no, reaction time 0 h): 45.2 | Decomposition efficiency of genistin family in roasted soy flour (pH2, heat treatment of enzyme no, reaction time 1 h): 45.0 | Decomposition efficiency of genistin family in roasted soy flour (pH2, heat treatment of enzyme no, reaction time 3 h): 43.1 | Decomposition efficiency of genistin family in roasted soy flour (pH2, heat treatment of enzyme no, reaction time 6 h): 40.7 | Decomposition efficiency of genistin family in roasted soy flour (pH2, heat treatment of enzyme yes, reaction time 6 h): 41.2 | Decomposition efficiency of genistin family in soymilk (pH2.3, heat treatment of enzyme: no, reaction time 0 h): 0.6% | Decomposition efficiency of genistin family in soymilk (pH2.3, heat treatment of enzyme: no, reaction time 1 h): 0.7% | Decomposition efficiency of genistin family in soymilk (pH2.3, heat treatment of enzyme: no, reaction time 3 h): 0.8% | Decomposition efficiency of genistin family in soymilk (pH2.3, heat treatment of enzyme: no, reaction time 6 h): 0.6% | Decomposition efficiency of genistin family in soymilk (pH2.3, heat treatment of enzyme: yes, reaction time 6 h): 0.6% | Decomposition efficiency of genistin family in defatted soybean (pH2.6, heat treatment of enzyme: no, reaction time 0 h): 1.8% | Decomposition efficiency of genistin family in defatted soybean (pH2.6, heat treatment of enzyme: no, reaction time 1 h): 1.7% | Decomposition efficiency of genistin family in defatted soybean (pH2.6, heat treatment of enzyme: no, reaction time 3 h): 1.7% | Decomposition efficiency of genistin family in defatted soybean (pH2.6, heat treatment of enzyme: no, reaction time 6 h): 1.9% | Decomposition efficiency of genistin family in defatted soybean (pH2.6, heat treatment of enzyme: yes, reaction time 6 h): 1.6% | Decomposition efficiency of genistin family in concentrated soybean protein (pH2.7, heat treatment of enzyme: no, reaction time 0 h): 42.5% | Decomposition efficiency of genistin family in concentrated soybean protein (pH2.7, heat treatment of enzyme: no, reaction time 1 h): 44.3% | Decomposition efficiency of genistin family in concentrated soybean protein (pH2.7, heat treatment of enzyme: no, reaction time 3 h): 43.7% | Decomposition efficiency of genistin family in concentrated soybean protein (pH2.7, heat treatment of enzyme: no, reaction time 6 h): 44.0% | Decomposition efficiency of genistin family in concentrated soybean protein (pH2.7, heat treatment of enzyme: yes, reaction time 6 h): 42.5% | Decomposition efficiency of genistin family in roasted soy flour (pH3, heat treatment of enzyme no, reaction time 0 h): 45.2 | Decomposition efficiency of genistin family in roasted soy flour (pH3, heat treatment of enzyme no, reaction time 1 h): 45.2 | Decomposition efficiency of genistin family in roasted soy flour (pH3, heat treatment of enzyme no, reaction time 3 h): 41.9 | Decomposition efficiency of genistin family in roasted soy flour (pH3, heat treatment of enzyme no, reaction time 6 h): 43.5 | Decomposition efficiency of genistin family in roasted soy flour (pH3, heat treatment of enzyme yes, reaction time 6 h): 45.1 | Decomposition efficiency of genistin family in defatted soybean (pH3.4, heat treatment of enzyme: no, reaction time 0 h): 1.8% | Decomposition efficiency of genistin family in defatted soybean (pH3.4, heat treatment of enzyme: no, reaction time 1 h): 1.5% | Decomposition efficiency of genistin family in defatted soybean (pH3.4, heat treatment of enzyme: no, reaction time 3 h): 1.1% | Decomposition efficiency of genistin family in defatted soybean (pH3.4, heat treatment of enzyme: no, reaction time 6 h): 0.8% | Decomposition efficiency of genistin family in defatted soybean (pH3.4, heat treatment of enzyme: yes, reaction time 6 h): 1.8% | Decomposition efficiency of genistin family in soymilk (pH3.5, heat treatment of enzyme: no, reaction time 0 h): 0.6% | Decomposition efficiency of genistin family in soymilk (pH3.5, heat treatment of enzyme: no, reaction time 1 h): not detected | Decomposition efficiency of genistin family in soymilk (pH3.5, heat treatment of enzyme: no, reaction time 3 h): not detected | Decomposition efficiency of genistin family in soymilk (pH3.5, heat treatment of enzyme: no, reaction time 6 h): not detected | Decomposition efficiency of genistin family in soymilk (pH3.5, heat treatment of enzyme: yes, reaction time 6 h): 0.5% | Decomposition efficiency of genistin family in concentrated soybean protein (pH3.7, heat treatment of enzyme: no, reaction time 0 h): 43.1% | Decomposition efficiency of genistin family in concentrated soybean protein (pH3.7, heat treatment of enzyme: no, reaction time 1 h): 43.5% | Decomposition efficiency of genistin family in concentrated soybean protein (pH3.7, heat treatment of enzyme: no, reaction time 3 h): 36.9% | Decomposition efficiency of genistin family in concentrated soybean protein (pH3.7, heat treatment of enzyme: no, reaction time 6 h): 30.7% | Decomposition efficiency of genistin family in concentrated soybean protein (pH3.7, heat treatment of enzyme: yes, reaction time 6 h): 43.0% | Decomposition efficiency of genistin family in roasted soy flour (pH4, heat treatment of enzyme no, reaction time 0 h): 45.4 | Decomposition efficiency of genistin family in roasted soy flour (pH4, heat treatment of enzyme no, reaction time 1 h): 36.3 | Decomposition efficiency of genistin family in roasted soy flour (pH4, heat treatment of enzyme no, reaction time 3 h): 23.4 | Decomposition efficiency of genistin family in roasted soy flour (pH4, heat treatment of enzyme no, reaction time 6 h): 13.4 | Decomposition efficiency of genistin family in roasted soy flour (pH4, heat treatment of enzyme yes, reaction time 6 h): 45.4 | Decomposition efficiency of genistin family in defatted soybean [1]: 1.8% | Decomposition efficiency of genistin family in soymilk [1]: 0.5% | Decomposition efficiency of genistin family in defatted soybean [2]: 1.0% | Decomposition efficiency of genistin family in soymilk [2]: not detected | Decomposition efficiency of genistin family in defatted soybean [3]: 0.6% | Decomposition efficiency of genistin family in soymilk [3]: not detected | Decomposition efficiency of genistin family in defatted soybean [4]: 0.4% | Decomposition efficiency of genistin family in soymilk [4]: not detected | Decomposition efficiency of genistin family in defatted soybean [5]: 1.3% | Decomposition efficiency of genistin family in soymilk [5]: 0.6%

Source: patent publication US7118895B2, “Process for producing aglycon by using diglycosidase and flavor-improved food containing the aglycon and converting agent to be used in the process” (Amano Enzyme Inc., priority 2000, dated 2006)
